How the values were obtained:
[1] = target: Gamma-secretase; assay: Inhibition of beta amyloid protein 40; type: protein-complex assay, Homo sapiens
[2] = target: Gamma-secretase; assay: Inhibition of beta amyloid protein 42; type: protein-complex assay, Homo sapiens
[3] = target: Gamma-secretase (Homo sapiens) (UniProt Q96BI3+Q9NZ42+Q8WW43+P49768+Q92542+P49810); assay: Inhibition of beta amyloid protein 40 at 100 uM; type: protein-complex assay

## O=C1C=CCN(S(=O)(=O)c2ccccc2)C1Cc1ccccc1 (stereo not drawn)
[1]
  IC50: 5.9 µM
[2]
  IC50: 12.3 µM

## CO[C@@H]1CCCC(=O)[C@H]1O
[1]
  IC50: > 100 µM
[2]
  IC50: > 100 µM

## CO[C@@H]1CCCC(=O)[C@H]1OCc1ccccc1
[1]
  IC50: 4.9 µM
[2]
  IC50: 13.9 µM

## O=C1CCCN(C(=O)OCc2ccccc2)C1Cc1ccccc1 (stereo not drawn)
[2]
  IC50: > 100 µM
[3]
  inhibition: 21%

## O=C1CCC[C@@H](OCc2ccccc2)[C@@H]1OCc1ccccc1
[1]
  IC50: > 100 µM
[2]
  IC50: > 100 µM

## CO[C@@H]1C(=O)CC(O)C[C@H]1OCc1ccccc1 (stereo partly drawn)
[1]
  IC50: > 100 µM
[2]
  IC50: > 100 µM

## O=C1C=CCN(C(=O)OCc2ccccc2)C1Cc1ccccc1 (stereo not drawn)
[1]
  IC50: 4.6 µM
[2]
  IC50: 7.4 µM

## COC(=O)N1CCCC(=O)C1Cc1ccccc1 (stereo not drawn)
[1]
  IC50: > 100 µM
[2]
  IC50: > 100 µM

## CO[C@@H]1C(=O)CCC[C@H]1O
[1]
  IC50: > 100 µM
[2]
  IC50: > 100 µM

## CO[C@@H]1C(=O)CCC[C@H]1OCc1ccccc1
[1]
  IC50: > 100 µM
[2]
  IC50: > 100 µM

## COC(=O)N1CCCC(O)C1Cc1ccccc1 (stereo not drawn)
[1]
  IC50: > 100 µM
[2]
  IC50: > 100 µM

## O=C(OCc1ccccc1)N1CCCC(O)C1Cc1ccccc1 (stereo not drawn)
[1]
  IC50: > 100 µM
[2]
  IC50: > 100 µM

## CO[C@@H]1CC(O)CC(=O)[C@H]1OCc1ccccc1 (stereo partly drawn)
[1]
  IC50: > 100 µM
[2]
  IC50: > 100 µM

## O=C1C=CCN(C(=O)c2ccccc2)C1Cc1ccccc1 (stereo not drawn)
[1]
  IC50: 1 µM
[2]
  IC50: 2.2 µM

## COC(=O)N1CC=CC(=O)C1Cc1ccccc1 (stereo not drawn)
[1]
  IC50: 7.2 µM
[2]
  IC50: 9.8 µM

## CO[C@@H]1CC=CC(=O)[C@H]1OCc1ccccc1
[1]
  IC50: 6.9 µM
[2]
  IC50: 10.2 µM

## CO[C@@H]1C(=O)C=CC[C@H]1OCc1ccccc1
[1]
  IC50: 33.9 µM
[2]
  IC50: 26 µM

## O=C1C=CC[C@@H](OCc2ccccc2)[C@@H]1OCc1ccccc1
[1]
  IC50: 1.6 µM
[2]
  IC50: 1.1 µM

## O=C1C=CC(O)N(C(=O)OCc2ccccc2)C1Cc1ccccc1 (stereo not drawn)
[1]
  IC50: 0.5 µM
[2]
  IC50: 0.7 µM
